US4546176A, “7-Carboxymethoxyphenylacetamido-3-cephem derivatives and antibacterial preparations containing the same” (Eisai Co., Ltd., priority 1982, dated 1985)
Values after ≈ are worked out from the molar mass of the structure shown.

What was measured:
[1] = system: Kleb. pneumoniae EK-6; experiment: Antibacterial activities (MIC), Kleb. pneumoniae EK-6; assay type: cell-based; settings: Klebsiella pneumoniae, EK6
Excerpt: (§1) (1) Antibacterial activities (MIC):

[2] = Urinary excretion rate in mice; assay type: in vivo, ICR male mice; settings: mouse, sc, 20 mg/kg subcutaneous, urine up to 6 hours, bioassay
Experimental: ICR male mice (body weight: 20-30 g) were used. Each compound was dissolved in an M/15 phosphate buffer (pH 7.0) and administered in an amount of 20 mg/kg by the subcutaneous route. Urine was collected up to 6 hours after the administration. The concentration of the compound was determined by the bioassey technique (the agar-well method) using Pseudomonas aeruginosa as a test microorganism. On the basis of the thus-determined concentration, its excreted amount was obtained. The urinary excretion rate was then calculated from the excreted amount based on the amount administered.

[3] = Solubility in water; assay type: physicochemical; settings: in distilled water at 25° C.
[4] = Acute toxicity LD50 (mouse, oral); settings: in vivo
Excerpt: The acute toxicity values [LD50 (mouse, oral)] of the following compounds were each 4 g/kg or greater;

[5] = system: Ser. marcescens ES-75; experiment: Antibacterial activities (MIC), Ser. marcescens ES-75; assay type: cell-based; settings: Serratia marcescens, ES75
Excerpt: as §1

[6] = system: Proteus morganii EP-14; experiment: Antibacterial activities (MIC), Proteus morganii EP-14; assay type: cell-based; settings: Morganella morganii, EP14
Excerpt: as §1

[7] = system: Proteus vulgaris E-18; experiment: Antibacterial activities (MIC), Proteus vulgaris E-18 (lactamase producing); assay type: cell-based; settings: E18; Proteus vulgaris E-18, lactamase producing bacteria
Excerpt: as §1
*Lactamase producing bacteria.

[8] = system: Staph. aureus 209-P; experiment: Antibacterial activities (MIC), Staph. aureus 209-P; assay type: cell-based; settings: Staphylococcus aureus
Excerpt: as §1

[9] = system: Escher. coli NIHJ; experiment: Antibacterial activities (MIC), Escher. coli NIHJ; assay type: cell-based; settings: Escherichia coli
Excerpt: as §1

[10] = system: Pseud. aeruginosa EP-01; experiment: Antibacterial activities (MIC), Pseud. aeruginosa EP-01; assay type: cell-based; settings: Pseudomonas aeruginosa, EP01
Excerpt: as §1

CO[C@@]1(NC(=O)[C@H](NC(=O)c2c(C)oc3cc(O)c(O)cc3c2=O)c2ccc(OCC(=O)O)cc2)C(=O)N2C(C(=O)O)=C(CSc3nnnn3CC(=O)O)CS[C@@H]21 [Example 25]
MIC [1]: ≤ 0.05 µg/mL | dose excreted at 6 h [2]: 20% | solubility [3]: ≥ 300 mg/mL | LD50 [4]: ≥ 4000 mg/kg | MIC [5]: 0.1 µg/mL (≈ 0.121 µM) | MIC [6]: 3.13 µg/mL (≈ 3.78 µM) | MIC [7]: 0.4 µg/mL (≈ 0.483 µM) | MIC [8]: 100 µg/mL (≈ 121 µM) | MIC [9]: 0.4 µg/mL (≈ 0.483 µM) | MIC [10]: 0.4 µg/mL (≈ 0.483 µM)

CO[C@@]1(NC(=O)[C@H](NC(=O)c2c(C)oc3cc(O)c(O)cc3c2=O)c2ccc(OCC(=O)O)cc2)C(=O)N2C(C(=O)[O-])=C(C[n+]3ccc(C(N)=O)cc3)CS[C@@H]21 [Example 50, Sodium 7β-[D-2-(4-carboxymethoxyphenyl)-2-(6,7-dihydroxy-2-methyl-4-oxo-4H-1-benzopyran-3-carboxamido)acetamido]-7α-methoxy-3-(4-carbamoylpyridinium)methyl-3-cephem-4-carboxylate]
MIC [1]: 0.1 µg/mL | solubility [3]: ≥ 300 mg/mL | LD50 [4]: ≥ 4000 mg/kg | MIC [5]: 0.8 µg/mL | MIC [6]: 12.5 µg/mL | MIC [7]: 3.13 µg/mL | MIC [8]: 100 µg/mL | MIC [9]: 1.56 µg/mL | MIC [10]: 0.4 µg/mL

CO[C@@]1(NC(=O)[C@H](NC(=O)c2c(C)oc3cc(O)c(O)cc3c2=O)c2ccc(OCC(=O)O)cc2)C(=O)N2C(C(=O)[O-])=C(C[n+]3ccccc3)CS[C@@H]21 [Example 48, Sodium 7β-[D-2-(4-carboxymethoxyphenyl)-2-(6,7-dihydroxy-2-methyl-4-oxo-4H-1-benzopyran-3-carboxamido)acetamido]-7α-methoxy-3-pyridiniummethyl-3-cephem-4-carboxylate]
MIC [1]: ≤ 0.05 µg/mL | dose excreted at 6 h [2]: 45% | solubility [3]: ≥ 300 mg/mL | LD50 [4]: ≥ 4000 mg/kg | MIC [5]: 0.1 µg/mL | MIC [6]: 6.25 µg/mL | MIC [7]: 1.56 µg/mL | MIC [8]: 100 µg/mL | MIC [9]: 0.2 µg/mL | MIC [10]: 0.2 µg/mL
